# Experimental data: patent US8513270B2, “Substituted heterocycles as Janus kinase inhibitors” (Incyte Corporation, priority 2006, dated 2013)
# Where a name gives a salt, the structure may show the parent alone.
# Experiments:
# [1] = biological target: T1, human JAK2 (a.a. 828-1132) (Homo sapiens, UniProt O60674); assay: In vitro JAK kinase assay (HTRF), JAK2; assay type: biochemical; settings: JAK2, 30 μM ATP; read-out: EXAMPLE A HTS-JAK2 HTRF-2 IC50
# T1 construct: JAK2 (a.a. 828-1132); His tag (N); made in house; host or cells: insect cells (baculovirus)
# Procedure: (§1) Compounds herein were tested for inhibitory activity of JAK targets according to the following in vitro assay described in Park et al., Analytical Biochemistry 1999, 269, 94-104. The catalytic domains of human JAK1 (a.a. 837-1142), JAK2 (a.a. 828-1132) and JAK3 (a.a. 781-1124) with an N-terminal His tag were expressed using baculovirus in insect cells and purified. The catalytic activity of JAK1, JAK2 or JAK3 was assayed by measuring the phosphorylation of a biotinylated peptide. The phosphorylated peptide was detected by homogenous time resolved fluorescence (HTRF). IC50s of compounds were measured for each kinase in the reactions that contain the enzyme, ATP and 500 nM peptide in 50 mM Tris (pH 7.8) buffer with 100 mM NaCl, 5 mM DTT, and 0.1 mg/mL (0.01%) BSA. The ATP concentration in the reactions was 90 μM for JAK1, 30 μM for JAK2 and 3 μM for JAK3. Reactions were carried out at room temperature for 1 hr and then stopped with 20 μL 45 mM EDTA, 300 nM SA-APC, 6 nM Eu—Py20 in assay buffer (Perkin Elmer, Boston, Mass.). Binding to the Europium labeled antibody took place for 40 minutes and HTRF signal was measured on a Fusion plate reader (Perkin Elmer, Boston, Mass.).
# [2] = test system: JAK2_INA61 (cancer cell line dependent on cytokines and JAK/STAT signal transduction); assay: Cellular assay: viability of cytokine-dependent cancer cell line (CellTiter-Glo); assay type: cell-based; settings: 72 hours, read-out: EXAMPLE B JAK2_INA61 IC50
# Procedure: One or more compounds herein were tested for inhibitory activity of JAK targets according to at least one of the following cellular assays.
# Compounds were added to the cells in DMSO/media (final concentration 0.2% DMSO) and incubated for 72 hours at 37° C., 5% CO2. The effect of compound on cell viability was assessed using the CellTiter-Glo Luminescent Cell Viability Assay (Promega) followed by TopCount (Perkin Elmer, Boston, Mass.) quantitation. Potential off-target effects of compounds were measured in parallel using a non-JAK driven cell line with the same assay readout. […] All experiments were performed in duplicate.
# [3] = biological target: T2, human JAK1 (a.a. 837-1142) (Homo sapiens, UniProt P23458); assay: In vitro JAK kinase assay (HTRF), JAK1; assay type: biochemical; settings: JAK1, 90 μM ATP; read-out: EXAMPLE A JAK2-JAK1 HTRF-2 IC50
# T2 construct: human JAK1 (a.a. 837-1142); His tag (N); made in house; host or cells: insect cells (baculovirus)
# Procedure: as §1
# [4] = biological target: T3, human JAK3 (a.a. 781-1124) (Homo sapiens, UniProt P52333); assay: In vitro JAK kinase assay (HTRF), JAK3; assay type: biochemical; settings: JAK3, 3 μM ATP; read-out: EXAMPLE A JAK2-JAK3 HTRF-2 IC50
# T3 construct: JAK3 (a.a. 781-1124); His tag (N); made in house; host or cells: insect cells (baculovirus)
# Procedure: as §1
# [5] = biological target: TF1-BCRABL1 cells (Homo sapiens, UniProt P00519); assay: ABL1 cell based assay: viability of ABL1-dependent cell line (CellTiter-Glo); settings: 72 hours, cell viability; read-out: EXAMPLE F JAK2-TF1-BCRABL1 IC50
# Procedure: One or more compounds herein were tested for inhibitory activity of ABL1 targets according to at least one of the following cellular assays.
# Cancer cell lines dependent on ABL1 kinase activity for proliferation and/or survival were plated at 3000 cells per well (96 well plate format) in RPMI 1640, and 10% FBS. Compounds were added to the cells in DMSO/media (final concentration 0.2% DMSO) and incubated for 72 hours at 37° C., 5% CO2. The effect of compound on cell viability was assessed using the CellTiter-Glo Luminescent Cell Viability Assay (Promega) followed by TopCount (Perkin Elmer, Boston, Mass.) quantitation. ABL1-dependent cell lines can include those naturally dependent on ABL1 activity or those engineered to be dependent on ABL1 activity (e.g. BaF/3 cells). The latter can be generated using wild-type ABL1 or mutant ABL1 (such as T315I ABL1) so that the activity of compounds can be assessed against different variants of the ABL1 kinase. Potential off-target effects of compounds were measured in parallel using a non-ABL1 driven cell line with the same assay readout. […] All experiments were performed in duplicate or greater.
# T1 sequence (O60674 828-1132): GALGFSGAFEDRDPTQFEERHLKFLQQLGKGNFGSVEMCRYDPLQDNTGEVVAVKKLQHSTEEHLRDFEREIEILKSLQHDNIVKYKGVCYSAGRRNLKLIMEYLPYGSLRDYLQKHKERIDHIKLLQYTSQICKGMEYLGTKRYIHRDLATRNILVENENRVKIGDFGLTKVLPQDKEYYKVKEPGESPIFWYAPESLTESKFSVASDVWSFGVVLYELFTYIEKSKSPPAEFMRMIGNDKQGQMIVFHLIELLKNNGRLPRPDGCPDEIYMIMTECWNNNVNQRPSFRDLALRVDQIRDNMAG
# T3 sequence (P52333 781-1124): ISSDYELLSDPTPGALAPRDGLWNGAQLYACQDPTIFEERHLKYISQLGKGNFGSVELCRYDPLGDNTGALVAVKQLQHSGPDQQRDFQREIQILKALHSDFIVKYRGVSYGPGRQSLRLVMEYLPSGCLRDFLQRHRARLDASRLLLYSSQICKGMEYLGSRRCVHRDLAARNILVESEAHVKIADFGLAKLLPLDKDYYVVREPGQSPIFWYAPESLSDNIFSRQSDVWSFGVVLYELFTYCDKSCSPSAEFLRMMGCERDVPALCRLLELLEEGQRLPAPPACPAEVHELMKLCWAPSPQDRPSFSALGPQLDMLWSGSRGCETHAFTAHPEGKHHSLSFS
# T2 sequence (P23458 849-1154): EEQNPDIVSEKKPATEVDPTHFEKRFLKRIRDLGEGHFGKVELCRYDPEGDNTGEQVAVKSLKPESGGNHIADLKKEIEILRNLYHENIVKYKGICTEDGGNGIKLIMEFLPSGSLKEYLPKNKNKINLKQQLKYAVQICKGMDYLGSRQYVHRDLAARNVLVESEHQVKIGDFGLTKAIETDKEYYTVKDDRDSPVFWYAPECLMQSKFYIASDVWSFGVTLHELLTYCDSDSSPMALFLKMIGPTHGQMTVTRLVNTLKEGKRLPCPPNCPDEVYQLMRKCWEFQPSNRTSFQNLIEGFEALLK
# Sequence of TF1-BCRABL1 cells (P00519 whole entry, change not shown): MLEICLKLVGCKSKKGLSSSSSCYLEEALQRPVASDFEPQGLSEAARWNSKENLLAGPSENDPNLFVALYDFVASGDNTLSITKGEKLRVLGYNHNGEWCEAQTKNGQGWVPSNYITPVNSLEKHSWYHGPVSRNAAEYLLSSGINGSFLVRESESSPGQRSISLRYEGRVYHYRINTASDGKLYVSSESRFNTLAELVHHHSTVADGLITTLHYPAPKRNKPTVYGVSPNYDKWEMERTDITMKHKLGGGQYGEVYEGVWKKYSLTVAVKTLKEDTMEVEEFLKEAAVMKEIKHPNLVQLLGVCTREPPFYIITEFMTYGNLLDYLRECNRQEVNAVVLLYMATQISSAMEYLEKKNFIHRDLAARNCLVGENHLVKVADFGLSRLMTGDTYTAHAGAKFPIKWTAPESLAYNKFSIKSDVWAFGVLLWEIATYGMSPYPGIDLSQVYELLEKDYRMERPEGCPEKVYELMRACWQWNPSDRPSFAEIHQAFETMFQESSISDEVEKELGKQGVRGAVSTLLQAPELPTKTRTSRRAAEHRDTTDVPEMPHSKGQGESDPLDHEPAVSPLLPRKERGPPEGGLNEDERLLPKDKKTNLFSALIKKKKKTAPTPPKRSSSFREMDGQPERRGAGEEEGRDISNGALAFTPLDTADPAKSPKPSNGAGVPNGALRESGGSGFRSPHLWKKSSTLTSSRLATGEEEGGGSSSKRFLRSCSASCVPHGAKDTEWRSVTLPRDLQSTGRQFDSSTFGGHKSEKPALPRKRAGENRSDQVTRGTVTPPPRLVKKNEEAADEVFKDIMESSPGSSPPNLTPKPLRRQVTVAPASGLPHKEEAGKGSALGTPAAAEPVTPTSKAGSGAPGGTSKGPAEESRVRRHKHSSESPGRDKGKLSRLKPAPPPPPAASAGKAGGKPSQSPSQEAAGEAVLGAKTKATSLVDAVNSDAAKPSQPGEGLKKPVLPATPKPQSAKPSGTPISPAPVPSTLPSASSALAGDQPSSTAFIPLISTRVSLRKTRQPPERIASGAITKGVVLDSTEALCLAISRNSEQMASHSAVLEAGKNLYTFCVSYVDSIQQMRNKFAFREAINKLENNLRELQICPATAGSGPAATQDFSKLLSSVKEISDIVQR
SMILES,IC50 [1] [nM],IC50 [2] [nM],IC50 [3] [nM],IC50 [4] [nM],GI50 [5] [nM]
"Cc1ccc(NC(=O)c2cc(F)cc(C(F)(F)F)c2)cc1-c1ccc2c(c1)[nH]c1ncncc12 [Example 19, 3-Fluoro-N-[4-methyl-3-(9H-pyrimido[4,5-b]indol-7-yl)phenyl]-5-(trifluoro-methyl)benzamide]",≤ 500,≤ 500,≤ 500,≤ 500,≤ 500
"Cc1ccc(NC(=O)c2cc(C(F)(F)F)cc(Cl)c2F)cc1-c1ccc2[nH]c3ncncc3c2c1 [Example 46, 3-chloro-2-fluoro-N-[4-methyl-3-(9H-pyrimido[4,5-b]indol-6-yl)phenyl]-5-(trifluoromethyl)-benzamide]",≤ 500,> 1000,≤ 500,> 1000,≤ 500
"Cc1ccc(NC(=O)Nc2cccc(C(F)(F)F)c2)cc1-c1ccc2[nH]c3ncncc3c2c1 [Example 48, N-[4-Methyl-3-(9H-pyrimido[4,5-b]indol-6-yl)phenyl]-N′-[3-(trifluoromethyl)-phenyl]urea]",> 1000,500 to 1000,≤ 500,500 to 1000,≤ 500
"Cc1ccc(NC(=O)c2cc(F)cc(C(F)(F)F)c2)cc1-c1ccc2[nH]c3ncncc3c2c1 [Example 43, 3-fluoro-N-[4-methyl-3-(9H-pyrimido[4,5-b]indol-6-yl)-phenyl]-5-(trifluoromethyl)-benzamide]",≤ 500,500 to 1000,> 1000,≤ 500,≤ 500
"Cc1ccc(NC(=O)c2cccc(Cl)c2)cc1-c1ccc2c(c1)[nH]c1ncncc12 [Example 15, 3-chloro-N-[4-methyl-3-(9H-pyrimido[4,5-b]indol-7-yl)-phenyl]benzamide]",≤ 500,≤ 500,≤ 500,≤ 500,≤ 500
"Cc1ccc(NC(=O)c2cccc(C(F)(F)F)c2)cc1-c1ccc2c(c1)[nH]c1ncncc12 [Example 1, N-[4-Methyl-3-(9H-pyrimido[4,5-b]indol-7-yl)phenyl]-3-(trifluoromethyl)benzamide trifluoroacetate]",≤ 500,≤ 500,≤ 500,≤ 500,≤ 500
"Cc1cn(-c2cc(C(=O)Nc3ccc(C)c(-c4ccc5c(c4)[nH]c4ncncc45)c3)cc(C(F)(F)F)c2)cn1 [Example 2, 3-(4-Methyl-1H-imidazol-1-yl)-N-[4-methyl-3-(9H-pyrimido[4,5-b]indol-7-yl)-phenyl]-5-(trifluoromethyl)benzamide bis(trifluoroacetate)]",≤ 500,500 to 1000,≤ 500,≤ 500,≤ 500
"O=C(Nc1cccc(C(F)(F)F)c1)c1cccc(-c2ccc3c(c2)[nH]c2ncncc23)c1 [Example 59, 3-(9H-pyrimido[4,5-b]indol-7-yl)-N-[3-(trifluoromethyl)-phenyl]benzamide]",≤ 500,> 1000,≤ 500,> 1000,500 to 1000
"Cc1ccc(NC(=O)c2cc(C(F)(F)F)ccc2C(F)(F)F)cc1-c1ccc2[nH]c3ncncc3c2c1 [Example 45, N-[4-methyl-3-(9H-pyrimido-[4,5-b]indol-6-yl)phenyl]-2,5-bis(trifluoromethyl)benzamide]",> 1000,> 1000,≤ 500,> 1000,500 to 1000
"Cc1ccc(NC(=O)c2ccccc2C(F)(F)F)cc1-c1ccc2c(c1)[nH]c1ncncc12 [Example 12, N-[4-methyl-3-(9H-pyrimido-[4,5-b]indol-7-yl)phenyl]-2-(trifluoromethyl)benzamide]",> 1000,> 1000,≤ 500,≤ 500,500 to 1000
"COc1ccc(C(=O)Nc2cccc(C(F)(F)F)c2)cc1-c1ccc2c(c1)[nH]c1ncncc12 [Example 60, 4-methoxy-3-(9H-pyrimido-[4,5-b]indol-7-yl)-N-[3-(trifluoromethyl)phenyl]-benzamide]",≤ 500,> 1000,≤ 500,500 to 1000,≤ 500
"Cc1ccc(C(=O)Nc2cccc(S(F)(F)(F)(F)F)c2)cc1-c1ccc2c(c1)[nH]c1ncncc12 [Example 65, 4-methyl-N-[3-(pentafluoro-λ(6)-sulfanyl)phenyl]-3-(9H-pyrimido[4,5-b]indol-7-yl)-benzamide]",≤ 500,500 to 1000,≤ 500,≤ 500,≤ 500

# The next lines start with results.
IC50 [1] [nM],IC50 [2] [nM],IC50 [3] [nM],IC50 [4] [nM],SMILES,GI50 [5] [nM]
> 1000,> 1000,≤ 500,≤ 500,"Cc1ccc(NC(=O)c2cccc(F)c2)cc1-c1ccc2[nH]c3ncncc3c2c1 [Example 44, 3-fluoro-N-[4-methyl-3-(9H-pyrimido[4,5-b]indol-6-yl)-phenyl]benzamide]",500 to 1000
≤ 500,> 1000,≤ 500,> 1000,"O=C(Nc1cccc(-c2ccc3c(c2)[nH]c2ncncc23)c1)c1cccc(C(F)(F)F)c1 [Example 14, N-[3-(9H-pyrimido[4,5-b]-indol-7-yl)phenyl]-3-(trifluoro-methyl)benzamide]",500 to 1000
≤ 500,500 to 1000,≤ 500,≤ 500,"Cc1ccc(NC(=O)c2cc(NCCN(C)C)cc(C(F)(F)F)c2)cc1-c1ccc2c(c1)[nH]c1ncncc12 [Example 38, 3-{[2-(dimethylamino)ethyl]-amino}-N-[4-methyl-3-(9H-pyrimido [4,5-b]indol-7-yl)-phenyl]-5-(trifluoromethyl) benzamide]",≤ 500
≤ 500,500 to 1000,≤ 500,≤ 500,"Cc1ccc(C(=O)Nc2cccc(OC(F)(F)F)c2)cc1-c1ccc2c(c1)[nH]c1ncncc12 [Example 54, 4-methyl-3-(9H-pyrimido-[4,5-b]indol-7-yl)-N-[3-(trifluoromethoxy)phenyl]-benzamide]",≤ 500
≤ 500,500 to 1000,≤ 500,≤ 500,"Cc1ccc(NC(=O)c2cc(N3CCNCC3)cc(C(F)(F)F)c2)cc1-c1ccc2c(c1)[nH]c1ncncc12 [Example 28, N-[4-methyl-3-(9H-pyrimido-[4,5-b]indol-7-yl)phenyl]-3-piperazin-1-yl-5-(trifluoro-methyl)benzamide]",≤ 500
≤ 500,–,≤ 500,≤ 500,"Cc1ncc(NC(=O)c2cc(-n3ccnc3)cc(C(F)(F)F)c2)cc1-c1ccc2c(c1)[nH]c1ncncc12 [Example 72, 3-(1H-imidazol-1-yl)-N-[6-methyl-5-(9H-pyrimido[4,5-b]indol-7-yl)pyridin-3-yl]-5-(trifluoromethyl)benzamide tris(trifluoroacetate)]",≤ 500
≤ 500,–,≤ 500,≤ 500,"Cc1ncc(NC(=O)c2cc(F)cc(C(F)(F)F)c2)cc1-c1ccc2c(c1)[nH]c1ncncc12 [Example 71, 3-Fluoro-N-[6-methyl-5-(9H-pyrimido[4,5-b]indol-7-yl)pyridin-3-yl]-5-(trifluoromethyl)benzamide]",≤ 500
